Source: patent US20230095495A1, “SKIN CONDITIONING COMPOSITION WITH HIGH CONCENTRATION OF UREA TO BOOST THE SKINCARE ACTIVES” (L'OREAL, priority 2021, published 2023)

Columns and labels:
[1] = acute oral toxicity, mutagenicity, skin irritation, skin sensitization, phototoxicity; cited from earlier work
stratum corneum = assay: In vitro stratum corneum comparison of ΔT by differential scanning calorimetry (DSC); conditions: variation of INV #1 applied first without rinsing, then hydroxy-acid based peel moisturizer; compared to peel moisturizer alone
Method: In studies, the effect of urea at various concentrations and using hydroxyethyl urea (HEU) was according to INV #1 (40% urea, 5% glycine, 0.7% triacetin, buffer) in which the amount and form of urea was varied. […] Studies were conducted with each of the tested compositions to evaluate effect of the compositions on the stratum corneum.
In Vitro Stratum Corneum Comparison of Δ T using differential scanning calorimetry (DSC) is used to characterize the stability of a protein or other biomolecule directly in its native form. It does this by measuring the heat change associated with the molecule's thermal denaturation when heated at a constant rate. Compositions were evaluated on SC samples according to the following procedure. Stratum corneum samples were equilibrated at 75% relative humidity (RH) overnight. Inventive and Comparative Compositions and control treatments applied on SC surface (0.1 g/sample) for 15 min in 75% RH. The SC surface was wiped clean and rinsed with DI water. Allow to dry in 75% RH overnight. The DSC profile was measured from 20° C. to 120° C. at 5° C./min.
As an initial step, each test composition was applied first to skin without rinsing, followed by application of a hydroxy-acid based peel composition in a moisturizer form.

SMILES | adverse effects in basic toxicological tests [1] | desquamation evidenced by stratum corneum disorganization, with increased amounts (stratum corneum)
CC(c1ccccc1)c1ccc(O)cc1O (stereo not drawn) [Phenylethyl resorcinol, phenylethyl resorcinol] | has not shown adverse effects | 
NC(=O)NCCO [hydroxyethyl urea] |  | increased desquamation
NC(N)=O [urea] |  | increased desquamation
